Laboratory results taken from US11000537B2, “Composition comprising novel ginsenoside” (AMOREPACIFIC CORPORATION, priority 2018, dated 2021).

Experiments:
[1] = system: pancreatic lipase; experiment: pancreatic lipase activity inhibition (Pancreatic Lipase Activity Assay Kit); format: cell-based
Method: The hepatocyte cell line HepG2 purchased from the International Center for Biological Resources (ATCC) were placed in Dulbecco's Modified Eagle's Medium (Sigma) to which 10% fetal bovine serum (Hyclone) and 1% penicillin/streptomycin (Sigma) were added, and cultured in a 5% CO2 incubator. As a positive control for the cells, Xenical (Sigma), which are used as pancreatic lipase inhibitors and anti-obesity therapeutic agents, and seven types of ginsenosides (GS #01-GS #06, GS #10; 10 μM each) extracted from Ginseng seed were treated for 1 hour. In addition, Pancreatic Lipase Activity Assay Kit (Abcam) was used to observe the inhibition of each lipase activity.

[2] = system: CD36; experiment: CD36 adipocyte marker gene expression (qPCR); format: cell-based
Method: The adipocyte cell 3T3-L1 purchased from the International Center for Biological Resources (ATCC) were placed in Dulbecco's Modified Eagle's Medium (Sigma) to which 10% fetal bovine serum (Hyclone) and 1% penicillin/streptomycin (Sigma) were added, and cultured in a 5% CO2 incubator. In order to differentiate preadipocytes into adipocytes, the cells were filled in a culture plate and cultured. After 48 hours, the cells were replaced with Dulbecco's modified eagle medium (DMEM) to which 10% of fetal bovine serum (Hyclone), 0.5 mM of 3-isobutyl-1-methylxanthine (Sigma), 1 μM of dexamethasone (Sigma), 5 μg/ml of insulin (Sigma), 1% of penicillin/streptomycin (Sigma) were added and further cultured for 48 hours. During 48 hours of culture, seven types of ginsenoside reagents (GS #01-GS #06, GS #10) extracted from Ginseng seeds were treated at 10 μM each to affect adipocyte differentiation. […]
After the differentiation of adipocytes in the same manner as above, the expressions of PPARγ (Peroxisome proliferator-activated receptor gamma), aP2 (Adipocyte protein 2) and CD36 were observed as adipocyte marker genes. […] Bio-Rad's CFX96 real-time quantitative PCR (qPCR) instrument was used to quantify the expression levels of each gene. […]

[3] = molecular target: T1, pancreatic α-amylase (Sus scrofa, UniProt P00690); experiment: α-amylase enzyme activity inhibition; format: biochemical
T1 construct: purchased Sigma
T1 sequence (P00690 16-511): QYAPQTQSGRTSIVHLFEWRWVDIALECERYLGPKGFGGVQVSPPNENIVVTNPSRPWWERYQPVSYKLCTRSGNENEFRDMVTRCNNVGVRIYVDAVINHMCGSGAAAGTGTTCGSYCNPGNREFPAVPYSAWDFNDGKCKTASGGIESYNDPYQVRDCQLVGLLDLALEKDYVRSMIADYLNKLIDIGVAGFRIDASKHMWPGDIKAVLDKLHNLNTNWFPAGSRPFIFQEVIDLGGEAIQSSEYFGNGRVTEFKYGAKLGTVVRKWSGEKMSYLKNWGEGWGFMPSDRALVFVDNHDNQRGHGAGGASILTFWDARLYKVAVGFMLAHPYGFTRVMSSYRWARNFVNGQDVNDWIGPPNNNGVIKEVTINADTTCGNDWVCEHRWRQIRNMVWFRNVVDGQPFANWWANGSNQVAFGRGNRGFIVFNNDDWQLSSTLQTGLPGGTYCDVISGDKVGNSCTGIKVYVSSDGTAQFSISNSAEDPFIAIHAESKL
Method: As a polysaccharide degrading enzyme, pancreatic α-amylase and α-glucosidase were purchased from Sigma, and the enzyme activity of novel ginsenoside GS #10, which is an example of the present disclosure, isolated from Ginseng seed extract and ginsenosides GS #01-GS #06, which are comparative examples of the present disclosure, was measured. In order to measure α-amylase activity, enzyme solution was prepared by dissolving BSA 0.1 g, 0.01 g/L NaN3, α-amylase 0.2857 g in 50 mL of PBS (phosphate buffered saline), and 5 mM of p-nitrophenyl-α-D-maltopentoglycoside was dissolved in another PBS to make a substrate solution. 0.1 mL of the test substance was added to 0.5 mL of the enzyme solution, and then the initial absorbance was measured at 405 nm. After adding 0.5 mL of the substrate solution and reacting it for 5 minutes, the absorbance was measured again. The change in enzyme activity was measured by the difference in absorbance between the two reactions. The method for measuring α-glucosidase activity is the same as the method for measuring α-amylase activity, and differs only in α-glucosidase and substrate (p-nitrophenyl-α-D-glucopyranoside). As a positive control to observe the inhibition of enzyme activity, acarbose, which is an α-amylase inhibitor and α-glucosidase inhibitor derived from wheat seed sold by Sigma, was used.

[4] = system: adipocyte cell 3T3-L1; experiment: fat accumulation in adipocytes (Oil-red O staining); format: cell-based
Method: The adipocyte cell 3T3-L1 purchased from the International Center for Biological Resources (ATCC) were placed in Dulbecco's Modified Eagle's Medium (Sigma) to which 10% fetal bovine serum (Hyclone) and 1% penicillin/streptomycin (Sigma) were added, and cultured in a 5% CO2 incubator. In order to differentiate preadipocytes into adipocytes, the cells were filled in a culture plate and cultured. After 48 hours, the cells were replaced with Dulbecco's modified eagle medium (DMEM) to which 10% of fetal bovine serum (Hyclone), 0.5 mM of 3-isobutyl-1-methylxanthine (Sigma), 1 μM of dexamethasone (Sigma), 5 μg/ml of insulin (Sigma), 1% of penicillin/streptomycin (Sigma) were added and further cultured for 48 hours. […] As a control to confirm the effect of inhibiting adipocyte differentiation, 20 μM of bisphenol A diglycidyl ether (BADGE) (Sigma), a PPARγ (Peroxisome proliferator-activated receptor gamma) antagonist, was used. Thereafter, the cells were further cultured for 10 days while being replaced with a medium containing 10% FBS and 5 μg/ml insulin and 1% penicillin/streptomycin at two-day intervals to induce adipocyte differentiation.
Differentiated adipocytes treated with each of the seven types of ginsenosides were fixed with formaldehyde solution (Sigma), stained with Oil-red O staining solution (Sigma), and then dissolved with isopropanol (Sigma), and then the amount of the stained fat was quantified by measuring at 490 nm absorbance.

CC1(C)C(=O)CC[C@@]2(C)C1[C@@H](O[C@H]1OC(CO)[C@H](O)C(O)C1O[C@H]1OC(CO)[C@H](O)C(O)C1O)C[C@]1(C)C2C[C@@H](O)C2C([C@]3(C)CC[C@H](C(C)(C)O)O3)CC[C@]21C (stereo partly drawn) [GS #10, (20S,24R)-6-O-β-D-glucopyranosyl(1→2)-β-D-glucopyranoside-dammar-3-one-20,24-epoxy-6a,12b,25-triol]
lipase activity inhibitory effect relative to that of the conventional ginsenoside ([1]; 10 μM, 1 hour, FIG. 22): ≥ 2 times
pancreatic lipase activity inhibitory effect ([1]; 10 μM, 1 hour, FIG. 22): the best
pancreatic lipase activity inhibition ([1]; 1, 10 μM, compared with Rg1, Rg3, Rb1, FIG. 27): far superior in lipid metabolism inhibitory effect
adipocyte differentiation inhibition, CD36 gene expression ([2]; 1 μM and 10 μM, compared with Rg1, Rg3, Rb1, FIG. 41): far superior in adipocyte differentiation inhibition
adipocyte differentiation inhibition, CD36 gene expression ([2]; 10 μM, FIG. 37): more effective in inhibiting the adipocyte differentiation
α-amylase activity inhibitory effect ([3]; 1, 10 μM, compared with ginsenosides Rg1, Rg3, Rb1, FIG. 14): much superior
α-amylase activity inhibitory effect ([3]; Test Example 1, FIG. 11, ginseng seed ginsenosides compared): most excellent α-amylase activity inhibitory effect
fat accumulation inhibitory effect in adipocytes ([4]; 1 μM and 10 μM, compared with Rg1, Rg3, Rb1, FIG. 38): far superior in adipocyte differentiation inhibition and fat accumulation inhibitory effect
fat accumulation inhibitory effect in adipocytes ([4]; 10 μM during 48 hours of differentiation, FIG. 34): most excellent fat accumulation inhibitory effect
